Patent US20220233708A1, “ANTIBODY-DRUG CONJUGATE, INTERMEDIATE THEREOF, PREPARATION METHOD THEREFOR AND APPLICATION THEREOF” (priority 2019, published 2022)
Where two headings read alike, the source gives them in different places. Starred links: 1 amine or outer side, 2 acyl side, 3 side chain; linkers in the order of their positions; H or OH if unused. Non-standard residues stand in square brackets, D forms with d. Residues, ends and D or L forms follow the SMILES beside them. *: point of attachment. Exatecan = CC[C@@]1(O)C(=O)OCc2c1cc1n(c2=O)Cc2c-1nc1cc(F)c(C)c3c1c2[C@@H](N*)CC3; Hexanoyl(6-maleimido) = O=C1C=CC(=O)N1CCCCCC(=O)*; NHCH2OCH2CO = O=C(COCN[*:1])[*:2]

Experiments:
[1] = test system: anti-HER2 antibody Trastuzumab; assay: Coupling of linker-drug conjugates with Trastuzumab; type: physicochemical; details: highest DAR (excessive coupling)
Procedure: (§1) The anti-B7-H3 antibody P2E5, anti-Claudin18.2 antibody IMAB362, and anti-HER2 antibody Trastuzumab (concentration was 15 mg/mL) were replaced into 50 mM PB/1.0 mM EDTA buffer (pH 7.0) by a G25 desalting column, respectively. 12 equivalents of TECP was added and the mixture was stirred at 37° C. for 2 hours to fully open the disulfide bonds between the antibody chains. Then phosphoric acid was used to adjust the pH of the reduced antibody solution to 6.0, and the temperature of the water bath was lowered to 25° C. for coupling reaction. […] After the reaction was completed, the sample was filtered with a 0.22 μm membrane. Uncoupled small molecules were purified and removed by a tangential flow ultrafiltration system. The buffer was 50 mM PB/1.0 mM EDTA solution (pH 6.0). After purification, sucrose (final concentration was 6%) was added, and the mixture was stored in a refrigerator at −20° C. The UV method was used to measure the absorbance values at 280 nm and 370 nm respectively, and the DAR value was calculated.

anti-B7-H3 antibody P2E5 = assay: Coupling of linker-drug conjugates with P2E5; type: physicochemical; details: coupling with P2E5, highest DAR (excessive coupling)
Procedure: as §1

cathepsin B = cathepsin B (Homo sapiens, UniProt P07858); assay: In vitro enzyme cleavage experiment of linker-drug conjugates; type: in vitro ADME; details: pH 5.0 to pH 7.0
Procedure: Linker-drug conjugates (LE14 and GGFG-Dxd) and cathepsin B were incubated in three different pH (5.0, 6.0, 7.0) buffers, and samples were taken at different time points into the high performance liquid chromatography-mass spectrometer. The release percentage of the drug was determined by external standard method (with Dxd as the external standard).

[2] = test system: anti-Claudin18.2 antibody IMAB362; assay: Coupling of linker-drug conjugates with IMAB362; type: physicochemical; details: coupling with IMAB362, highest DAR (excessive coupling)
Procedure: as §1

other antibodies = assay: Coupling of linker-drug conjugates with other / different antibodies; type: physicochemical; details: coupled with other / different antibodies
NCI-N87 cell line = assay: Killing activity on NCI-N87 before and after enzyme cleavage by cathepsin B system; type: cell-based, human; details: NCI-N87, 144 hours
Description: The NCI-N87 cell line was selected as the experimental cell line.

SMILES: CC[C@@]1(O)C(=O)OCc2c1cc1n(c2=O)Cc2c-1nc1cc(F)c(C)c3c1c2[C@@H](NC(=O)COCNC(=O)CNC(=O)[C@H](Cc1ccccc1)NC(=O)CNC(=O)CNC(=O)CCCCCN1C(=O)C=CC1=O)CC3 [GGFG-Dxd, reference compound] ({Hexanoyl(6-maleimido)}-GGFG[NHCH2OCH2CO]-Exatecan)
- Ratio of aggregates [1]: 0.1%
- Whether precipitation [1]: did not produce precipitation and No
- Ratio of aggregates (anti-B7-H3 antibody P2E5): 20%
- Whether precipitation (anti-B7-H3 antibody P2E5): produced precipitation
- Enzyme cleavage speed (in words) (cathepsin B): slower enzyme cleavage speed
- Ratio of aggregates [2]: 35%
- Whether precipitation [2]: produced precipitation
- Precipitation (in words) (other antibodies): precipitation would be produced
- Ratio of aggregates (in words) (other antibodies): high

SMILES: CC[C@@]1(O)C(=O)OC(=O)C2=C1C=C1c3nc4cc(F)c(C)c5c4c(c3CN1C2)[C@@H](NC(=O)COCN(CCS(C)(=O)=O)C(=O)OCc1ccc(NC(=O)[C@H](C)NC(=O)[C@@H](NC(=O)CCCCCN2C(=O)C=CC2=O)C(C)C)cc1)CC5 [LE14]
- Ratio of aggregates [1]: 0.3%
- Whether precipitation [1]: No
- Ratio of aggregates (anti-B7-H3 antibody P2E5): 1.3%
- Whether precipitation (anti-B7-H3 antibody P2E5): No
- Enzyme cleavage speed (in words) (cathepsin B): could quickly cleave
- Ratio of aggregates [2]: 2.5%
- Whether precipitation [2]: No

SMILES: CC[C@@]1(O)C(=O)OCc2c1cc1n(c2=O)Cc2c-1nc1cc(F)c(C)c3c1c2[C@@H](NC(=O)COCNC(=O)CNC(=O)[C@H](Cc1ccccc1)NC(=O)[C@H](C)NC(=O)[C@@H](NC(=O)CCCCCN1C(=O)C=CC1=O)C(C)C)CC3 [LE23] ({Hexanoyl(6-maleimido)}-VAFG[NHCH2OCH2CO]-Exatecan)
- Ratio of aggregates [1]: 0.1%
- Whether precipitation [1]: No
- Ratio of aggregates (anti-B7-H3 antibody P2E5): 1.9%
- Whether precipitation (anti-B7-H3 antibody P2E5): No
- Ratio of aggregates [2]: 1.6%
- Whether precipitation [2]: No

SMILES: CC[C@@]1(O)C(=O)OCc2c1cc1n(c2=O)Cc2c-1nc1cc(F)c(C)c3c1c2[C@@H](NC(=O)COCNC(=O)CNC(=O)[C@H](Cc1ccccc1)NC(=O)[C@H](CS)NC(=O)[C@@H](NC(=O)CCCCCN1C(=O)C=CC1=O)C(C)C)CC3 [LE24] ({Hexanoyl(6-maleimido)}-VCFG[NHCH2OCH2CO]-Exatecan)
- Ratio of aggregates [1]: 0.1%
- Whether precipitation [1]: No
- Ratio of aggregates (anti-B7-H3 antibody P2E5): 1.2%
- Whether precipitation (anti-B7-H3 antibody P2E5): No
- Ratio of aggregates [2]: 2.0%
- Whether precipitation [2]: No

SMILES: CCc1c2c(nc3ccc(O)cc13)-c1cc3c(c(=O)n1C2)COC(=O)[C@]3(O)CC [SN38, 7-ethyl-10-hydroxycamptothecin]
- IC50 (NCI-N87 cell line; after cathepsin B system pH 5.0, 37° C., 4 hours, read-out: IC50 (Based on SN-38 equivalent), After enzyme cleavage): 6.85 nM
- IC50 (NCI-N87 cell line; before cathepsin B cleavage, read-out: IC50 (Based on SN-38 equivalent), Before enzyme cleavage): 6.47 nM
